This test deals with T1, glucocerebrosidase (Gcase) (Homo sapiens, UniProt P04062).
T1 construct: micellar solution containing 10 nM GCase and 100 nM saposin C
T1 sequence (P04062 40-536): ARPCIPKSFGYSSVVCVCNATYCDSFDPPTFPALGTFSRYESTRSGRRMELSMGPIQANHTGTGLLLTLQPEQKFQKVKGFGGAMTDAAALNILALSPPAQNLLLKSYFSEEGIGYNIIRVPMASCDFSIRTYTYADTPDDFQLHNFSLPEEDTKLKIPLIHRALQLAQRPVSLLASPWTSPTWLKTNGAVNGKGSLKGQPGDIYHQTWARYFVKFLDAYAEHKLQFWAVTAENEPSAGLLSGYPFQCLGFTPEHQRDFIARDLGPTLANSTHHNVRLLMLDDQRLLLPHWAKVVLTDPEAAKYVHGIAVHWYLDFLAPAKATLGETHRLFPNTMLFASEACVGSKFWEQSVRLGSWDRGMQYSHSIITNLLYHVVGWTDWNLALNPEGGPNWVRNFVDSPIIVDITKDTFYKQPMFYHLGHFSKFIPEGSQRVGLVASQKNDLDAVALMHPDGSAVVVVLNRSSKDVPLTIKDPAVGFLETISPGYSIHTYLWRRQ
The test can be described thus: Glucocerebrosidase (Gcase) activation assay, 4-methylumbelliferyl-beta-D-glucopyranoside substrate, with saposin C. The test is classed as biochemical. As to conditions: 0.25 h; for activation at 0.1 µM: read-out: Percent Gcase Activation 0.1 μM Test Compound; for activation at 1 µM: read-out: Percent Gcase Activation 1 μM Test Compound. Here is the method: The ability of exemplary compounds to activate glucocerebrosidase (Gcase) was measured.
A 484 μL aliquot of a 1.0 mg/mL solution of phosphatidylserine (PS) (Sigma P7769) in chloroform was evaporated under a stream of nitrogen for 1 hour. The lipid film was dissolved over 4 minutes of vigorous vortexing in 40 mL of 176 mM K2HPO4/50 mM citric acid (pH 4.7) containing 7.5 μL of triton X-100, resulting in a mixed micellar preparation with a composition of 0.32 mM triton and 0.37 mol % PS. 4-Methylumbelliferyl-beta-D-glucopyranoside (ACROS-337025000) was dissolved in the micellar solution to a final concentration of 2 mM for use as the reaction substrate.
Test compounds were diluted to the desired concentrations with dimethylsulfoxide (DMSO) from 10 mM stocks, and 0.41 μL of the DMSO compound mixture was added to 100 μL of micellar solution containing 10 nM GCase and 100 nM saposin C (Enzo ALX-201-262-C050). Pre-incubation was allowed to occur for 30 minutes at room temperature, after which the reaction was initiated by combining 25 μL of substrate solution with 25 μL of compound/GCase/saposin mixture. The reaction proceeded for 15 minutes at room temperature and was stopped by adding 150 μL of 1M glycine, pH 12.5. The endpoint of the reaction was monitored by measuring fluorescence intensity (excitation: 365 nm; emission: 440 nm) on a SpectraMax i3 instrument (Molecular Devices). Test compounds were screened at 1.0 and 0.1 μM final concentration, and subsequent 8-point dose response curves were obtained using 3-fold dilutions from a maximum final concentration of 5 μM.
The symbol “+” indicates less than 5% Gcase activation; the symbol “++” indicates Gcase activation in the range of 5% up to 20%; and the symbol “+++” indicates Gcase activation greater than 20%.

Molecules are shown by their SMILES.

`CCCCCCOC1CCC(NC(=O)c2cnc3cc(C)c(Cl)nn23)CC1` (stereo not drawn): the activation at 0.1 µM is less than 5% and the activation at 1 µM was less than 5%.

As for `Cc1cc2ncc(C(=O)Nc3ccc4c(c3)CCC4)n2nc1Cl`, the activation at 0.1 µM was less than 5% and the activation at 1 µM was in the range of 5 to 20%.

As for `Cc1cc(-c2cccc(F)c2)nn2c(C(=O)NC(C3CC3)C(F)(F)F)cnc12` (stereo not drawn), the activation at 0.1 µM is more than 20% and the activation at 1 µM was more than 20%.

As for `COc1cccc(-c2cc(C)c3ncc(C(=O)NC(C4CC4)C(F)(F)F)n3n2)c1` (stereo not drawn), the activation at 0.1 µM was more than 20% and the activation at 1 µM was more than 20%.

Regarding `COc1cccc(-c2cc(C)c3ncc(C(=O)NC(C4CC4)C4CC4)n3n2)c1`, the activation at 0.1 µM is more than 20% and the activation at 1 µM is more than 20%.

Consider `Cc1cc(-c2ccns2)nn2c(C(=O)NC(C)(C)C3CC3)cnc12`, for which the activation at 0.1 µM is 5 to 20% and the activation at 1 µM is more than 20%.

In the case of `C#CC(C)(C)NC(=O)c1cnc2c(C)cc(-c3ccns3)nn12`, the activation at 0.1 µM was less than 5% and the activation at 1 µM was more than 20%.

For `Cc1cc(-c2ccns2)nn2c(C(=O)NC(C3CC3)C(F)(F)F)cnc12` (stereo not drawn), the activation at 0.1 µM fell in the range of 5 to 20% and the activation at 1 µM was more than 20%.

As to `Cc1cc(-c2ccc3ocnc3c2)nn2c(C(=O)NC(C)C3CC3)cnc12` (stereo not drawn), the activation at 0.1 µM was more than 20% and the activation at 1 µM was more than 20%.

On to `Cc1cc(-c2ccc3ocnc3c2)nn2c(C(=O)NC(C3CC3)C(F)(F)F)cnc12` (stereo not drawn), for which the activation at 0.1 µM is more than 20% and the activation at 1 µM was more than 20%.

In the case of `Cc1cc(-c2cccc3ocnc23)nn2c(C(=O)NC(C3CC3)C(F)(F)F)cnc12` (stereo not drawn), the activation at 0.1 µM was 5 to 20% and the activation at 1 µM is more than 20%.

Turning to `COc1cccc(-c2cc(C)c3ncc(C(=O)NC(C4CC4)C(F)(F)F)n3n2)n1` (stereo not drawn), the activation at 0.1 µM is more than 20% and the activation at 1 µM was more than 20%.

Turning to `Cc1cc(-c2cccc(F)c2)nn2c(C(=O)NC(C)C(F)(F)F)cnc12` (stereo not drawn), the activation at 0.1 µM fell in the range of 5 to 20% and the activation at 1 µM was more than 20%.

Regarding `Cc1cc(-c2cccc3ncoc23)nn2c(C(=O)NC(C3CC3)C(F)(F)F)cnc12` (stereo not drawn), the activation at 0.1 µM fell in the range of 5 to 20% and the activation at 1 µM was more than 20%.

In the case of `Cc1cc(-c2cccc3ncoc23)nn2c(C(=O)NC(C)C(F)(F)F)cnc12` (stereo not drawn), the activation at 0.1 µM is less than 5% and the activation at 1 µM is more than 20%.

For `Cc1cc(-c2ccc3ocnc3c2)nn2c(C(=O)NC(C)C(F)(F)F)cnc12` (stereo not drawn), the activation at 0.1 µM is more than 20% and the activation at 1 µM is more than 20%.

Consider `Cc1cc(-c2ccc(F)cc2C#N)nn2c(C(=O)NC(C3CC3)C(F)(F)F)cnc12` (stereo not drawn), for which the activation at 0.1 µM was in the range of 5 to 20% and the activation at 1 µM was more than 20%.

On to `Cc1cc(-c2ccc(F)cc2C#N)nn2c(C(=O)NC(C)C(F)(F)F)cnc12` (stereo not drawn), for which the activation at 0.1 µM lay in the range of 5 to 20% and the activation at 1 µM was more than 20%.

As to `Cc1cc(-c2ccc3ocnc3c2)nn2c(C(=O)N[C@H](C)C(F)(F)F)cnc12`, the activation at 0.1 µM fell in the range of 5 to 20% and the activation at 1 µM was more than 20%.

As for `Cc1cc(-c2ccc3ocnc3c2)nn2c(C(=O)N[C@@H](C)C(F)(F)F)cnc12`, the activation at 0.1 µM was more than 20% and the activation at 1 µM is more than 20%.

`Cc1cc(-c2ccc(F)cc2C#N)nn2c(C(=O)N[C@H](C3CC3)C(F)(F)F)cnc12`: the activation at 0.1 µM was in the range of 5 to 20% and the activation at 1 µM was more than 20%.

Take `Cc1cc(-c2ccc(F)cc2C#N)nn2c(C(=O)N[C@@H](C3CC3)C(F)(F)F)cnc12`: the activation at 0.1 µM was more than 20% and the activation at 1 µM was more than 20%.

For the molecule `Cc1cc(-c2ccc(F)cc2C#N)nn2c(C(=O)N[C@H](C)C(F)(F)F)cnc12`, the activation at 0.1 µM is less than 5% and the activation at 1 µM is 5 to 20%.

As for `Cc1cc(-c2ccc(F)cc2C#N)nn2c(C(=O)N[C@@H](C)C(F)(F)F)cnc12`, the activation at 0.1 µM is 5 to 20% and the activation at 1 µM is more than 20%.

As to `Cc1cc(-c2ccc(F)cc2C#N)nn2c(C(=O)N[C@H](C)C3CC3)cnc12`, the activation at 0.1 µM was less than 5% and the activation at 1 µM was more than 20%.

With `Cc1cc(-c2ccc(C#N)o2)nn2c(C(=O)N[C@H](C3CC3)C(F)(F)F)cnc12`, the activation at 0.1 µM was more than 20% and the activation at 1 µM was more than 20%.

`Cc1cc(-c2ccc(C#N)o2)nn2c(C(=O)N[C@@H](C3CC3)C(F)(F)F)cnc12`: the activation at 0.1 µM is more than 20% and the activation at 1 µM was more than 20%.

Regarding `Cc1cc(-c2sccc2C#N)nn2c(C(=O)N[C@H](C3CC3)C(F)(F)F)cnc12`, the activation at 0.1 µM is more than 20% and the activation at 1 µM is more than 20%.

Turning to `Cc1cc(-c2sccc2C#N)nn2c(C(=O)N[C@@H](C3CC3)C(F)(F)F)cnc12`, the activation at 0.1 µM is more than 20% and the activation at 1 µM is more than 20%.

On to `Cc1cc(N2CCN(C(C)C)C2=O)nn2c(C(=O)NC(C3CC3)C(F)(F)F)cnc12` (stereo not drawn), for which the activation at 0.1 µM is 5 to 20% and the activation at 1 µM was more than 20%.

`Cc1cc(-c2ccon2)nn2c(C(=O)NC(C3CC3)C(F)(F)F)cnc12` (stereo not drawn): the activation at 0.1 µM lay in the range of 5 to 20% and the activation at 1 µM was more than 20%.

In the case of `Cc1cc(-c2cccc(Cl)n2)nn2c(C(=O)NC(C)C(F)(F)F)cnc12` (stereo not drawn), the activation at 0.1 µM lay within 5 to 20% and the activation at 1 µM was more than 20%.

Regarding `Cc1cc(-c2cc(C)c3ncc(C(=O)N[C@H](C4CC4)C(F)(F)F)n3n2)sn1`, the activation at 0.1 µM was more than 20% and the activation at 1 µM was more than 20%.

As for `Cc1cc(-c2cc(C)c3ncc(C(=O)N[C@@H](C4CC4)C(F)(F)F)n3n2)sn1`, the activation at 0.1 µM is 5 to 20% and the activation at 1 µM was more than 20%.

`Cc1cc(-c2cccnc2F)nn2c(C(=O)NC(C3CC3)C(F)(F)F)cnc12` (stereo not drawn): the activation at 0.1 µM was 5 to 20% and the activation at 1 µM is more than 20%.

With `Cc1cc(-c2cncc(Cl)c2)nn2c(C(=O)N[C@H](C3CC3)C(F)(F)F)cnc12`, the activation at 0.1 µM was more than 20% and the activation at 1 µM is more than 20%.

For the molecule `Cc1cc(-c2cncc(Cl)c2)nn2c(C(=O)N[C@@H](C3CC3)C(F)(F)F)cnc12`, the activation at 0.1 µM was more than 20% and the activation at 1 µM is more than 20%.

`Cc1cc(-c2cncc(F)c2)nn2c(C(=O)NC(C3CC3)C(F)(F)F)cnc12` (stereo not drawn): the activation at 0.1 µM was in the range of 5 to 20% and the activation at 1 µM is more than 20%.

As for `Cc1nc2cc(-c3cc(C)c4ncc(C(=O)NC(C)C(F)(F)F)n4n3)ccc2o1` (stereo not drawn), the activation at 0.1 µM is 5 to 20% and the activation at 1 µM is more than 20%.

In the case of `Cc1cc(N2CCCC(F)(F)C2)nn2c(C(=O)N[C@H](C3CC3)C(F)(F)F)cnc12`, the activation at 0.1 µM is more than 20% and the activation at 1 µM was more than 20%.

Regarding `Cc1cc(N2CCCC(F)(F)C2)nn2c(C(=O)N[C@@H](C3CC3)C(F)(F)F)cnc12`, the activation at 0.1 µM was more than 20% and the activation at 1 µM was more than 20%.

In the case of `Cc1cc(-c2ccccc2C#N)nn2c(C(=O)NC(C3CC3)C(F)(F)F)cnc12` (stereo not drawn), the activation at 0.1 µM lay in the range of 5 to 20% and the activation at 1 µM is more than 20%.

For `Cc1cc(-c2ccc(F)o2)nn2c(C(=O)NC(C3CC3)C(F)(F)F)cnc12` (stereo not drawn), the activation at 0.1 µM is more than 20% and the activation at 1 µM was more than 20%.

Consider `Cc1cc(C#N)c(-c2cc(C)c3ncc(C(=O)N[C@H](C)C(F)(F)F)n3n2)o1`, for which the activation at 0.1 µM was in the range of 5 to 20% and the activation at 1 µM is more than 20%.

`Cc1cc(C#N)c(-c2cc(C)c3ncc(C(=O)N[C@@H](C)C(F)(F)F)n3n2)o1`: the activation at 0.1 µM is more than 20% and the activation at 1 µM is more than 20%.

For the molecule `Cc1cc(-c2ccc3c(c2)ncn3C)nn2c(C(=O)N[C@H](C3CC3)C(F)(F)F)cnc12`, the activation at 0.1 µM lay within 5 to 20% and the activation at 1 µM was more than 20%.

Regarding `Cc1cc(-c2ccc(C(N)=O)o2)nn2c(C(=O)N[C@@H](C3CC3)C(F)(F)F)ncc12`, the activation at 0.1 µM lay in the range of 5 to 20% and the activation at 1 µM was more than 20%.

For the molecule `Cc1cc(-c2ccc(C#N)o2)nn2c(C(=O)N[C@@H](C3CC3)C(F)(F)F)ncc12`, the activation at 0.1 µM was more than 20% and the activation at 1 µM was more than 20%.

(Values after patent publication US11168087B2, “Substituted imidazo[1,2-b]pyridazines, substituted imidazo[1,5-b]pyridazines, related compounds, and their use in the treatment of medical disorders” (BIAL—R&D Investments, S.A., priority 2016, dated 2021).)
